Counter-ions that a name gives are not always drawn.

The values that follow come from patent publication US12433892B2, “Compositions and methods of treatment for neurological disorders comprising depression” (Gliapharm SA, priority 2018, dated 2025).

The subject of data set [1] is C57Bl/6 mice. In words: Forced swim test (FST). Format: in vivo, mouse. Particulars: 100 mg/kg per os, 1.5 hr. As to the method:
(§1) The depression mouse model features wild-type C57Bl/6 laboratory mice without any transgenic changes. To ensure that the actions of the tested molecules in the animal models of depression are not due to effects on locomotor activity or muscle strength in animals, molecules are administered to mice that are then tested in the grip strength test (GST) and in the open-field test (OFT) following the protocols described in Carrard et al. (Carrard, Elsayed, Margineanu, Boury-Jamot, Frangiere, Meylan, Petit, Fiuemlli, Magistretti and Martin. Peripheral administration of lactate produces antidepressant-like effects. Molecular Psychiatry, 2016 Oct. 18, e-pub). If alterations in muscle strength and/or locomotor activity are measured following administration drug, no further analyses are performed with this molecule.
FST is a test used to identify molecules that produce an acute antidepressant-like behavioral response.
1.5 hr after a single oral (vehicle or lactate-enhancing molecules) or intraperitoneal (vehicle, fluoxetine or despratmine) administration, mice are placed in a cylindrical container filled to a depth of 15 cm with water (23-25° C.). 6-min swim session are videotaped, and time spent immobile, which reflects the animal depressive-like behavior, is scored subsequently by an experimenter blind to the conditions used.

Data set [2] concerns C57Bl/6 mice. Nature of the data set: Open field test (OFT). Format: in vivo, mouse. The settings on record: 100 mg/kg per os, 1.5 hr. As to the method:
as §1
OFT is a test used to identify molecules that could modulate mouse activity, which might affect results in the FST. 1.5 hr after a single oral molecules administration, mice are placed in a 39 cm (long)×33 cm (large)×33 cm (high) open box and their activity is videotaped for 10 minutes. Mouse activity is then automatically scored using Ethovision pro video tracking system (Noldus).

For data set [3], the system named is C57Bl/6 mice. In words: Grip strength test (GST). Format: in vivo, mouse. Particulars: 100 mg/kg per os, 1.5 hr. As to the method:
as §1
GST is a test used to identify molecules that could modulate mouse grip strength, which might affect results in the FST. 1.5 hr after a single oral molecules administration, mice are placed on a grid dynamometer and the muscle strength (N) or their two front paws or all their four paws is measured in 3 consecutive sessions, and the best score is recorded.

The nature of data set [4]: In vivo pharmacokinetics (PFC microdialysis and plasma). Details: species or system mouse. Particulars: after gavage with 100 mg/kg. As to the method:
Mice were anesthetized using isoflurane (2% and 800 mL/min O2). Before surgery, Finadyne (1 mg/kg, s.c.) was administered for analgesia during surgery and the post-surgical recovery period. A mixture of bupivacaine and epinephrine was used for local anesthesia of the incision site of the periost of the skull.
The animals were placed in a stereotaxic frame (Kopf instruments, USA). MetaQuant microdialysis probes with a 3 mm exposed polyacrylonitrile membrane (MQ-PAN 3/3, Brainlink, the Netherlands) were implanted into the prefrontal cortex (coordinates for the tip of the probe: AP=+2.0 mm (to bregma), lateral=−0.7 mm (to midline), ventral=−3.3 mm (to dura), with the incisor bar set at 0.0 mm and an angle of 8°). All coordinates were based on “The mouse brain in stereotaxic coordinates” by Paxinos and Franklin (2004). The probes were attached to the skull with a stainless steel screw and dental cement (Fuji Plus Capsules, Henry Schein, the Netherlands).
In the same surgical procedure, a catheter was placed into the jugular vein to accommodate blood sampling. An indwelling cannula was inserted into the right jugular vein, and exteriorized through an incision on top of the skull. The end of the jugular vein catheter was fixed in position with dental acrylic cement and attached to the skull with two stainless steel screws.
Experiments were initiated one day after surgery. The MetaQuant microdialysis probes were connected with flexible PEEK tubing (Western Analytical Products Inc. USA; PK005-020) to a microperfusion pump (CMA Microdialysis) and perfused with aCSF+0.2% BSA at a flow rate of 0.12 μL/min. Ultrapurified water+0.2% BSA was used as the carrier flow at a flow rate of 0.80 μL/min. After a minimum of 1.5 hours of prestabilization, microdialysis samples were collected in 30 minute intervals. Samples were collected into polystyrene microvials (Microbiotech/se AB, Sweden; 4001029) using an automated fraction collector (UV 8301501, TSE, Univentor, Malta). After collection of three basal samples, at t=0 minutes, drug of interest was administered per os. Eight additional samples were collected after compound administration. All samples were stored at −80° C. until off-line analysis.
In parallel, blood samples (50 μL) were taken from the jugular vein through the cannula. These samples were collected at specified intervals into vials containing 5 μL heparin (500 IE/mL in saline). The samples were mixed by inverting the tubes and, subsequently, centrifuged at 4000 rpm (1500×g) for 10 min at 4° C. The supernatant was stored as plasma in 1.5 mL Eppendorf vials (Sarstedt, Germany) at −80° C. until off-line analysis.
At the end of the experiment, the animals were euthanized and terminal brain tissue was collected for visual histological verification of the probe positions.
PK was measured for GP-04, GP-05, GP-07, GP-R1 and GP-P1 in the PFC (prefrontal cortex) and plasma of wild type C56Bl/6 mice by CRO Brainsonline.

Data set [5] relates to C57Bl/6 male and female mice. In words: In vivo chronic toxicity (28 days). As to the method: During this period, clinical symptoms and weight were recorded.
Chronic toxicity was assessed.

Data set [6] concerns cerebral extracellular lactate. In words: In vivo pharmacodynamics: lactate biosensors in cortex. Details: species or system mouse. The settings on record: 10 mg/kg per os. As to the method:
Extracellular levels of lactate were monitored in vivo using lactate biosensors (Pinnacle Technology), according to the manufacturer's instructions. Cannulae were surgically implanted in mice cerebral cerebral motor cortex areas M1/M2 (coordinates: +1.94 mm (to bregma), lateral −1.4 mm (to mideline), ventral −1.0 mm (to dura)) 5-7 days before administration of the compounds. Drugs were administered per os as previously described, and cerebral levels of extracellular lactate were dynamically recorded for 6 hours. Mice were administered vehicle alone first, followed 3 hours later by vehicle or drug (10 or 100 mg/kg). Area Under the Curve (AUC) quantifying the fluctuations of extracellular lactate concentrations for each of the compound tested was calculated using Graphad Prism and the ratio of AUC after drug over Vehicle administration was calculated. Groups of 8 male mice were used for each condition.
To measure biological effect of lead molecules in vivo in the brain, lactate levels were quantified after administration of the drug by using lactate biosensors implanted in the cortex of freely moving mice.

The test system of data set [7] is astrocytes. In words: Intracellular glycogen quantification. It counts as cell-based, mouse. Particulars: Prestwick hits; 10 uM, 3 h.
The next data set deals with primary astrocytes. In words: High throughput screening (HTS) for lactate secretion: acidification of extracellular medium (SNARF5). It counts as cell-based, mouse. The settings on record: Appendix I; primary screening confirmation (SNARF5). As to the method:
Primary cultures of cerebrocortical astrocytes were obtained from 1-2-day-old OF1 mouse pups (Charles River Laboratories). Briefly, cortices were isolated and minced in small pieces under a dissecting microscope. The cells were incubated for 30 min at 37° C. in a solution containing 20 U/ml of papain enzyme (Worthington Biochemical), L-cysteine 1 mM (Sigma), and 10 kU/ml DNase I (Worthington Biochemical) for an enzymatic dissociation. […]
Secretion of lactate in a high-throughput screening (HTS) fashion was measured indirectly through the acidification of extracellular medium. […]
After 90 min stimulation, fluorescence was read at exc. […] The ratio of fluorescence between 630 nm and 580 emission values, which represents extracellular pH, was calculated.
In each plate, 8 wells were used for negative controls (DMSO) and 8 wells were used for positive controls (CCCP 2 uM in DMSO). Z prime values were calculated for each of the plates tested and values<0 were discarded.
The average and SD of compounds' values tested in duplicates were calculated, and compound was noted as HIT when the difference between compound's average and negative control's average was greater than three times the sum of compound's SD and negative controls' SD. […] Scores are calculated as the % of activity compared to the positive control in each plate (which is 100%). […]

In data set [8] the test system is astrocytes. Nature of the data set: Extracellular lactate quantification. Format: cell-based, mouse. Set-up: Score_LACTATE / Score Lact.: scale not given here. Particulars: Appendix I; secondary screening, dosage of extracellular lactate. As to the method:
Primary cultures of cerebrocortical astrocytes were obtained from 1-2-day-old OF1 mouse pups (Charles River Laboratories). Briefly, cortices were isolated and minced in small pieces under a dissecting microscope. The cells were incubated for 30 min at 37° C. in a solution containing 20 U/ml of papain enzyme (Worthington Biochemical), L-cysteine 1 mM (Sigma), and 10 kU/ml DNase I (Worthington Biochemical) for an enzymatic dissociation. Papain activity was stopped by the addition of fetal calf serum (FCS) to the solution, and a single-cell suspension was then obtained by mechanical dissociation, which consisted in cells trituration in a DMEM (D7777, Sigma-Aldrich) medium (supplemented with 44 mm NaHCO3, and 10 ml/L antibiotic/antimycotic solution) containing 10% FCS. The cells were seeded at an average density of 6×10^4 cells/cm^2 in poly-D-lysine-coated 96, 12 or 6-well culture plates, depending on their use, and incubated at 37° C. in a humidified atmosphere containing 5% CO2/95% air. Culture medium was renewed twice per week. Cells were stimulated and harvested between DIV14 and DIV17, when confluence and cell growth were optimal.
Secretion of L-lactate was determined in the extracellular medium of 96-well plated astrocytes after 90 min stimulation (at 37° C., in 5% CO2/95% air conditions) with the drug of interest. The stimulation medium was composed of D5030 medium (completed with D-glucose 5 mM and 44 mM sodium bicarbonate) for 90 min in concentrations ranging from 0 to 100 μM.
Briefly, 200 μl of a Glycine (Sigma)-Semicarbazide (Acros) 0.2M pH 10 buffer containing 3 mM NAD (Roche) and LDH 14 U/ml (Roche) was added to each well of a 96-well plate containing 30 μl aliquots complemented with 20 μl fresh complete D5030 medium. Samples were incubated at 37° C. for 1 h. After samples cooled down at room temperature, the fluorescence intensity (340 nm excitation/450 nm emission) that represents the amount of NADH produced was measured, and lactate concentration values were determined from a standard curve of L-lactate.
Statistical analysis consisted in ANOVA followed by Fisher LSD post-hoc test for pair-wise comparisons.
Levels of lactate secreted by astrocytes were measured in the extracellular medium at 90 min after stimulation with hits (molecules) from the CDC54K library.

Regarding `COc1ccc(Cc2nccc3cc(OC)c(OC)cc23)cc1OC` [Papaverine hydrochloride], in the data set on C57Bl/6 mice [1], the time spent immobile entry is on record as “significant reduction”. Moreover, the “activity (open field)” value with C57Bl/6 mice [2] is on record as “does not affect”. The grip strength result in the data set with C57Bl/6 mice [3] is “does not affect”. Also, the “levels in the PFC” value in data set [4] is “at therapeutic range (100 nM to 1 uM) and sustained over several hours”. In data set [5] (10 mg/kg per os once a day, 28 days), the “chronic toxicity (toxic or safe)” value is listed as “safe”. Besides, in data set [5] (chronic 10 mg/kg, liver, kidney), the pathological analysis entry is on record as “minor treatment-related effects”. Further, the “cerebral lactate (AUC ratio vs vehicle)” value in [6] was “Significant increase”. The “Glycogen (statistical significance of glycogen degradation)” value with astrocytes [7] is listed as “**** (****p<0.0001)”.
Compound `O=C(C[n+]1cc(-c2ccccc2)n2c1CCC2)c1ccc(Br)cc1.[Br-]` [T0502-5560] registered a Score_SNARF in the data set with primary astrocytes of 0.8504. Besides, the Score_LACTATE with astrocytes [8] is reported as 0.8524.
